Experimental findings from patent publication US20240400584A1, “COMPOUNDS AND METHODS FOR MODULATING SPLICING” (REMIX THERAPEUTICS INC., priority 2021, published 2024) are described below.

Experiment [1] deals with MYB. Nature of the experiment: Gene panel canonical junction qPCR assay, MYB CJ mRNA (Table 7). Type of experiment: cell-based. Conditions: Homo sapiens, read-out: MYB CJ mRNA decrease IC50. The method, then:
(§1) Compounds described herein were used to modulate RNA transcript abundance in cells. The expression of a target mRNA was measured by detecting the formation of an exon-exon junction in the canonical transcript (CJ). A compound mediated exon-inclusion event was detected by observing an increase in formation OF A new junction with an alternative exon (AJ). Real-time qPCR assays were used to detect these splicing switches and interrogate the potency of various compounds towards different target Genes. A high-throughput real time quantitative PCR (RT-qPCR) assay was developed to measure these two isoforms of the mRNA (CJ and AJ) for exemplary genes, such as HTT, SMN2, and MYB, together with a control housekeeping gene, GAPDH or GUSB or PPIA, used for normalization. Briefly, the A673 or K562 cell line was treated with various compounds described herein (e.g., compounds of Formula (i)). After treatment, the levels of the HTT, MYB, or SMN2 mRNA targets were determined from each sample of cell lysate by cDNA synthesis followed by qPCR.
(§2) The data analysis was performed by first determining the ΔCt vs the housekeeper gene. This ΔCt was then normalized against the DMSO control (ΔΔCt) and converted to RQ (relative quantification) using the 2^(−ΔΔCt) equation. The RQ were then converted to a percentage response by arbitrarily setting an assay window of 3.5 and 4.0 ΔCt for HTT-CJ and MYB-CJ respectively and an assay window of 9 and 3 ΔCt for HTT-AJ and MYB-AJ in 96 well format (50,000 K562 cells/well and 15,000 A673 cells per well) and an assay window of 3 and 4 ΔCt for HTT-CJ and MYB-CJ respectively and an assay window of 5 and 3 ΔCt for HTT-AJ and MYB-AJ respectively in 384 well format (8,000 K562 cells/well example). […] The percentage response was then fitted to the 4 parametric logistic equation to evaluate the concentration dependence of compound treatment. The increase in AJ mRNA is reported as AC50 (compound concentration having 50% response in AJ increase) while the decrease in CJ mRNA levels is reported as IC50 (compound concentration having 50% response in CJ decrease).
(§3) Additional studies were carried out for a larger panel of genes using the protocol provided above. The junction between flanking upstream and downstream exons was used to design canonical junction qPCR assays. At least one of the forward primer, reverse primer or the CY5-labeled 5′ nuclease probe (with 3′ quencher such as ZEN/Iowa Black FQ) was designed to overlap with the exon junction to capture the CJ mRNA transcript. BLAST was used to confirm the specificity of the probeset and parameters such as melting temperature, GC content, amplicon size, and primer dimer formation are considered during their design. Data for the decrease in CJ mRNA levels for four exemplary genes (HTT, SMN2, MYB, and Target C) analyzed in this panel are reported as IC50 (compound concentration having 50% response in CJ decrease).
For orientation: In qPCR the cycle at which signal appears reflects the starting amount.

In experiment [2] the test system is HTT. Nature of the experiment: Gene panel canonical junction qPCR assay, HTT CJ mRNA (Table 7). Type of experiment: cell-based, human. Particulars: Homo sapiens, read-out: HTT CJ mRNA decrease IC50. The method, then: as §1, §2, §3
Another experiment deals with Target C. In words: Gene panel canonical junction qPCR assay, Target C CJ mRNA (Table 7). The class given is cell-based, human. Particulars: Homo sapiens, read-out: Target C CJ mRNA decrease IC50. The procedure: as §1, §2, §3
The next experiment relates to SMN2. Nature of the experiment: Gene panel canonical junction qPCR assay, SMN2 CJ mRNA (Table 7). The class given is cell-based. Conditions: Homo sapiens, read-out: SMN2 CJ mRNA decrease IC50. The procedure: as §1, §2, §3
In experiment [3] the test system is HTT. Nature of the experiment: RT-qPCR splicing assay, HTT AJ/CJ mRNA. The class given is cell-based, human. Particulars: Homo sapiens, 24 h, A673 or K562 cells; for pIC50: decrease in canonical junction mRNA; for AC50: increase in alternative junction mRNA. The method, then:
as §1
(§4) The A673 cell line was cultured in DMEM with 10% FBS. Cells were diluted with full growth media and plated in a 96-well plate (15,000 cells in 100 ul media per well). The plate was incubated at 37° C. with 5% CO2 for 24 hours to allow cells to adhere. An 11-point 3-fold serial dilution of the compounds was made in DMSO then diluted in media in an intermediate plate. Compounds were transferred from the intermediate plate to the cell plate with the top dose at a final concentration of 10 uM in the well. Final DMSO concentration was kept at or below 0.25%. The cell plate was returned to the incubator at 37° C. with 5% CO2 for an additional 24 hours.
(§5) The K562 cell line was cultured in IMDM with 10% FBS. For K562, cells were diluted with full growth media and plated in either a 96-well plate (50,000 cells in 50 uL media per well) or a 384-well plate (8,000-40,000 cells in 45 uL media per well). An 11-point 3-fold serial dilution of the compounds were made in DMSO then diluted in media in an intermediate plate. Compound was transferred from the intermediate plate to the cell plate with the top dose at a final concentration of 10 uM in the well. Final DMSO concentration was kept at or below 0.25%. Final volume was 100 uL for 96-well plate and 50 uL for 384-well plate. The cell plate was then placed in an incubator at 37° C. with 5% CO2 for 24 hours.
(§6) The cells were then gently washed with 50 uL-100 uL Cold Pbs before proceeding to addition of lysis buffer. 30 uL-50 μL of room temperature lysis buffer with DNAse I (and optionally RNAsin) was added to each well. Cells were shaken/mixed thoroughly at room temperature for 5-10 minutes for lysis to take place and then 3 uL-5 μL of room temperature stop solution was added and wells were shaken/mixed again. After 2-5 minutes, the cell lysate plate was transferred to ice for RT-qPCR reaction setup. The lysates could also be frozen at −80° C. for later use.
(§7) In some cases, a direct lysis buffer was used. an appropriate volume of 3× lysis buffer (10 mM tRis, 150 mM NaCl, 1.5%-2.5% Igepal and 0.1-1 U/uL RNAsin, pH 7.4) was directly added to either K562 or A673 cells in media and mixed by pipetting 3 times. The plates were then incubated at room temperature with shaking/rocking for 20-50 minutes to allow for lysis to take place. After this time, the cell lysate plate was transferred to ice to set up for the RT-qPCR reactions. The lysates could also be frozen at −80° C. for later use.
(§8) To set up 10 uL RT-QpcR reactions, cell lysates were transferred to 384-well qPCR plates containing the master mix according to the table below. The plates were sealed, gently vortexed, and spun down before the run. The volumes were adjusted accordingly in some instances where the reaction was carried in 20 µL. The table below summarizes the components of the RT-qPCR reactions:
(§9) The RT-qPCR reaction was performed using a QuantStudio (ThermoFisher) under the following fast cycling conditions. […]

Experiment [4] has as its system MYB. Nature of the experiment: RT-qPCR splicing assay, MYB AJ/CJ mRNA. Type of experiment: cell-based. Conditions: Homo sapiens, A673 or K562 cells, 24 hours; for pIC50: decrease in canonical junction mRNA; for AC50: increase in alternative junction mRNA. The procedure: as §1, §4, §5, §6, §7, §8, §9

pIC50: −log10 of the molar value.

The pIC50 is the IC50 on a negative log10 scale, so that one unit is a factor of ten. As usually defined, the AC50 is the concentration at which the activity in the assay is half-maximal. Consider `c1cnn(-c2ccc3c(c2)COc2nc(N4CCNCC4)ccc2-3)c1` [Compound 173], for which the pIC50 in the experiment with MYB [1] is below 5.00; in the experiment with HTT [2], below 5.00; in the experiment on Target C it was below 5.00; in the experiment with SMN2, 5.00 to 6.00; in the experiment with HTT [3] it was below 5.00; in the experiment on MYB [4], below 5.00. The AC50 in the experiment with HTT [3] and in the experiment with MYB [4] was above 10 µM in each case.
Regarding `c1cnn(-c2ccc3c(c2)COc2nc(NC4CCNCC4)ccc2-3)c1` [Compound 174], the pIC50 in the experiment on MYB [1] is below 5.00; with HTT [2], below 5.00; in the experiment with Target C, below 5.00; in the experiment with SMN2, 5.00 to 6.00; in the experiment with HTT [3] it was below 5.00; in the experiment on MYB [4], below 5.00. Besides, the AC50 in the experiment with HTT [3] and with MYB [4] was above 10 µM throughout.
As for `CN(c1ccc2c(n1)OCc1cc(-n3cccn3)ccc1-2)C1CCNCC1` [Compound 175], the pIC50 was below 5.00 with MYB [1]; below 5.00 in the experiment with HTT [2]; below 5.00 in the experiment on Target C; 5.00 to 6.00 in the experiment with SMN2; below 5.00 in the experiment with HTT [3]; below 5.00 in the experiment on MYB [4]. In addition, the AC50 is 1 to 10 µM with HTT [3] and above 10 µM with MYB [4].
Consider `[2H]C([2H])([2H])N(c1ccc2c(n1)OCc1cc(-n3cccn3)ccc1-2)C1CCNCC1` [Compound 176], for which the pIC50 is below 5.00 with MYB [1]; 5.00 to 6.00 with HTT [2]; below 5.00 with Target C; 5.00 to 6.00 in the experiment with SMN2; 5.00 to 6.00 in the experiment with HTT [3]; below 5.00 with MYB [4]. For the same compound, the AC50 was 1 to 10 µM in the experiment with HTT [3] and above 10 µM in the experiment on MYB [4].
For the compound `CCN(c1ccc2c(n1)OCc1cc(-n3cccn3)ccc1-2)C1CCNCC1` [Compound 177], the pIC50 in the experiment with MYB [1], in the experiment with HTT [2], in the experiment with Target C, in the experiment with SMN2, in the experiment on HTT [3] and with MYB [4] was below 5.00 throughout. For the same compound, the AC50 with HTT [3] and with MYB [4] was above 10 µM each time.
Regarding `CN(c1ccc2c(n1)OCc1cc(-n3cccn3)ccc1-2)[C@@H]1C[C@H]2CCC[C@@H](C1)N2` [Compound 178], the pIC50 in the experiment on MYB [1] is 6.00 to 7.00; with HTT [2], above 7.00; in the experiment on Target C it was 6.00 to 7.00; in the experiment on SMN2 it was above 7.00; in the experiment on HTT [3], above 7.00; in the experiment on MYB [4] it was 6.00 to 7.00. Moreover, the AC50 with HTT [3] and with MYB [4] was below 0.1 µM each time.
Turning to `c1cnn(-c2ccc3c(c2)COc2nc(N[C@@H]4C[C@H]5CC[C@@H](C4)N5)ccc2-3)c1` [Compound 179], the negative-log IC50 (pIC50) with MYB [1], in the experiment with HTT [2], with Target C, in the experiment with SMN2, in the experiment on HTT [3] and with MYB [4] was 6.00 to 7.00 each time. Moreover, the AC50 in the experiment with HTT [3] and in the experiment with MYB [4] was 0.1 to 1 µM each time.
As for `CN(c1ccc2c(n1)OCc1cc(-n3cccn3)ccc1-2)[C@H]1C[C@]2(C)CC[C@](C)(C1)N2` [Compound 180], the pIC50 was 6.00 to 7.00 in the experiment on MYB [1]; above 7.00 in the experiment on HTT [2]; 6.00 to 7.00 in the experiment on Target C; above 7.00 in the experiment on SMN2; above 7.00 in the experiment on HTT [3]; 6.00 to 7.00 in the experiment on MYB [4]. Further, the AC50 with HTT [3] is below 0.1 µM; in the experiment with MYB [4], 0.1 to 1 µM.
As for `c1cnn(-c2ccc3c(c2)COc2nc(N4CCCC5(CNC5)C4)ccc2-3)c1` [Compound 181], the pIC50 in the experiment with MYB [1], in the experiment on HTT [2], with Target C, with SMN2, with HTT [3] and in the experiment on MYB [4] was below 5.00 each time. Also, the AC50 in the experiment with HTT [3] and in the experiment with MYB [4] was above 10 µM each time.
With `c1cnn(-c2ccc3c(c2)COc2nc(N4CCC5(CCNCC5)C4)ccc2-3)c1` [Compound 182], the pIC50 with MYB [1], in the experiment on HTT [2], in the experiment on Target C, in the experiment on SMN2, in the experiment on HTT [3] and in the experiment with MYB [4] was below 5.00 throughout. Besides, the AC50 with HTT [3] and in the experiment on MYB [4] was above 10 µM in each case.
Consider `c1cnn(-c2ccc3c(c2)COc2nc(N4CCC5(CCCNC5)C4)ccc2-3)c1` (centres unmarked) [Compound 183], for which the pIC50 in the experiment on MYB [1] is 5.00 to 6.00; in the experiment with HTT [2], below 5.00; in the experiment with Target C, below 5.00; with SMN2 it was 6.00 to 7.00; in the experiment on HTT [3] it was below 5.00; with MYB [4], 5.00 to 6.00. For the same compound, the AC50 in the experiment with HTT [3] and with MYB [4] was above 10 µM in each case.
For the compound `c1cnn(-c2ccc3c(c2)COc2nc(N4CCC5(CCNC5)CC4)ccc2-3)c1` [Compound 184], the pIC50 with MYB [1], in the experiment with HTT [2], in the experiment on Target C, in the experiment on SMN2, with HTT [3] and with MYB [4] was 5.00 to 6.00 in each case. The AC50 with HTT [3] and in the experiment on MYB [4] was 1 to 10 µM each time.
In the case of `c1cnn(-c2ccc3c(c2)COc2nc(N4C[C@H]5CNC[C@H]5C4)ccc2-3)c1` [Compound 185], the pIC50 in the experiment with MYB [1] is below 5.00; with HTT [2], below 5.00; with Target C, below 5.00; in the experiment on SMN2, 5.00 to 6.00; in the experiment with HTT [3], below 5.00; in the experiment with MYB [4], below 5.00. Besides, the AC50 is above 10 µM in the experiment on HTT [3] and 1 to 10 µM in the experiment with MYB [4].
